Assay results reported in patent publication US8080252B2, “Compounds and methods of modulating angiogenesis” (The Cleveland Clinic Foundation, priority 2006, dated 2011).
Non-standard residues stand in square brackets, D forms with d. No end group written: not given here. pY = N[C@@H](Cc1ccc(OP(=O)(O)O)cc1)C(=O)O

How the values were obtained:
β3 integrin = β3 integrin tyrosine phosphorylation (Tyr-747 and 759) in HUVECs, Western blot; assay type: cell-based, Human; conditions: adherent endothelial cells plated on vitronectin
Method: αvβ3 integrin is expressed on proliferating endothelial cells during angiogenesis and vascular remodeling and the blockade of αvβ3 integrin suppressed angiogenesis in several in vivo models. Therefore, we assessed whether the blockade of αvβ3 affected tyrosine phosphorylation of β3 subunit. […] Cells were also treated with non-immune IgG as control. These cells were washed and further induced with VEGF for 5 min at 37° C. Cell lysates were analyzed for phosphorylation of β3 integrin (Tyr-747 and 759). […] Basal level of β3 integrin tyrosine phosphorylation remains unaffected irrespective of different blocking antibody treatment. To further examine consequences of αvβ3 integrin blocking antibodies, cell lysates were analyzed for tyrosine phosphorylation of VEGFR-2 (Tyr-1175).
Cytoplasmic domains of integrin β subunits are highly conserved and represents region of structural homology between the various groups. […] Cell lysates were analyzed for the phosphorylation of β3 integrin. […]
Cells were lysed in immunoprecipitation lysis buffer (1% Noniodet P-40, 150 mM NaCl, 50 mM Tris-HCL (pH 7.8), 2 mM EDTA, 10 mM NaF, 10 mM Na2P2O7, 2 mM Na3VO4 10 μg/mL leupeptin, 4 μg/mL pepstatin and 0.1 U/mL aprotinin). […] Bands were analyzed by densitomeric analysis using Kodak 1D software and fold changes were indicated.

c-Src = biological target: T1, c-Src (Homo sapiens, UniProt P12931); test: In vitro kinase assay, c-Src phosphorylation of β3 integrin cytoplasmic domain or peptides; assay type: biochemical; conditions: [γ-32P] ATP incorporation
T1 construct: c-Src was immunoprecipitated from VEGF-stimulated HUVEC; endogenous in cells; host or cells: HUVEC (immunoprecipitate)
T1 sequence (P12931 whole entry, the tested form may be a part): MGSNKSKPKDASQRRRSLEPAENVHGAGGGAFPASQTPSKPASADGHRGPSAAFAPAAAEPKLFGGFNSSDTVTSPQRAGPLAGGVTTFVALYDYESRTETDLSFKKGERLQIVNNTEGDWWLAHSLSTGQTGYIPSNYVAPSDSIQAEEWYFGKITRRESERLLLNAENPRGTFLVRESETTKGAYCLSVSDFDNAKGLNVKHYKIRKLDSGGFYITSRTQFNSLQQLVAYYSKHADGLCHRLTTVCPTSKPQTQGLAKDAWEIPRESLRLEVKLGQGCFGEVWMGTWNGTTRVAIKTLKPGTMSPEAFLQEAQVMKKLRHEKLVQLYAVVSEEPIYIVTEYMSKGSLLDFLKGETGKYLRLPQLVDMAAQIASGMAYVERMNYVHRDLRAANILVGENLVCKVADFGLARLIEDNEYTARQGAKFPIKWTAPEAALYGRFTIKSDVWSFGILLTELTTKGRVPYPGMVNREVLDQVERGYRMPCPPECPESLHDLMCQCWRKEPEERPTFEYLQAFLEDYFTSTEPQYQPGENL
Source text: Principle mechanism by which integrins appear to mediate the transfer of information from extracellular environment to intracellular milieu is through phosphorylation of β-subunit at cytoplasmic tyrosine motifs. Ligand occupancy of αvβ3 is a prerequisite for the tyrosine phosphorylation events and implying an important role for outside-in integrin signaling in this process. To examine whether c-Src can directly mediate β3 integrin tyrosine phosphorylation, c-Src was immunoprecipitated from VEGF-stimulated HUVEC. Immunocomplex were incubated with a full-length purified β3 integrin cytoplasmic domain, and [γ-^32P] ATP incorporation into was monitored. […] Recombinant purified c-Src also phosphorylated the β3 integrin whereas no phosphorylation was observed without the substrate, indicating the specificity of the reaction (lane 1 and 5). […] To further investigate whether c-Src phosphorylates Tyr-747 or Tyr-759 of β3 integrin or both residues, kinase assay were performed using peptide derived from these two distinct sites of β3 integrin as substrates (FIG. 20 E). […] In the presence of Tyr-747/Tyr-759 β3 integrin cytoplasmic peptide, a dramatic increase in [γ-^32P] ATP incorporation was observed as compared to control peptides devoid of tyrosine motifs. Similar results were observed using purified recombinant c-Src protein. As anticipated, [γ-^32P] […]

HUVECs [1] = test: Cell adhesion assay of HUVECs on vitronectin (Example 5); assay type: cell-based, Human
Method: Cells were washed twice with sterile PBS and re-suspended in DMEM. The cell suspensions were added to ligand-coated wells and placed in humidified incubator for 45 min. Wells were gently washed three times with DMEM and photographs were taken. The numbers of attached and spread cells per field were counted.

HUVECs [2] = test: Cell migration assay of HUVECs on vitronectin, VEGF as agonist (Example 5); assay type: cell-based, Human; conditions: vitronectin as substrate
Method: To assess the role of Src-mediated β3 integrin tyrosine phosphorylation in αvβ3 integrin dependent EC migration, HUVECs transfected with various forms of Src were evaluated in migration assays using VEGF as an agonist and vitronectin as a substrate. […] To further evaluate the c-Src mediated β3 integrin cytoplasmic tyrosine motifs phosphorylation in αvβ3 integrin dependent endothelial cell migration, wild type and DiYF mouse lung microvascular endothelial cells were transfected with wild type, dominant negative and catalytically active form of c-Src and stimulated with VEGF (FIG. 23 B).
Transwell tissue culture inserts were coated with αvβ3 integrin ligand vitronectin for 24 h at 4° C. Endothelial cells were transfected with various forms of c-Src or treated with inhibitors and were trypsinized; then 1×10^5 cells were added into each well. Cells were allowed to migrate for 12 h and fixed with 70% methanol for 15 min and stained with Giemsa. The non-migrated cells adhered to the top surface were removed and three random 10× fields were photographed using an inverted phase contrast microscopy.

[3] = test system: angiogenesis in VEGF-A-containing Matrigel; test: Matrigel plug assay, neovascularization by hemoglobin assay (Example 4); assay type: in vivo; conditions: 50 mM peptide in 500 μL Matrigel with VEGF (60 ng/mL) and heparin, subcutaneous, 7 days, C57/Bl6 mice
Method: Matrigel plug assays were performed in age- and sex-matched C57/Bl6 background mice. Each animal received an abdominal subcutaneous injection of 500 μL Matrigel mixed with VEGF (60 ng/mL), heparin (60 units/mL) and 50 mM of control ([…] G DTANNPL […]-COOH) (SEQ ID NO: 14) or beta-3 integrin cytoplasmic domain inhibitory peptide ([…] G DTANNPL Yp […]-COOH) (SEQ ID NO: 2). After 7 days, the animals were euthanized and dissected. Matrigel plugs were removed and digested using 5 mL Drabkin reagent and neovascularization was assessed using a hemoglobin assay as per the manufacturer's protocol (FIG. 16).

Compound | effect on β3 integrin tyrosine phosphorylation (β3 integrin) | effect on phosphorylation of β3 integrin cytoplasmic domain by immunoprecipitated c-Src (c-Src) | effect on cell adhesion to vitronectin (HUVECs [1]) | effect on EC migration triggered by VEGF (HUVECs [2]) | hemoglobin concentration in Matrigel plugs, fold lower compared to control peptide [3]
CN(C)S(=O)(=O)c1ccc2c(c1)C(=Cc1cc3c([nH]1)CCCC3)C(=O)N2 [SU6656, 2-oxo-3(4,5,6,7-tetrahydro-1-H-indol-2-ylmethylene)-2,3-dihydro-1H-indole-5-sulfonic acid dimethylamide] | completely blocked | blocked this process | caused impairment of cell adhesion to vitronectin | reduced EC migration triggered by VEGF | 
YGRKKRRQRRR G DTANNPL Yp KEATSTFT-COOH (YGRKKRRQRRRGDTANNPL[pY]KEATSTFT-OH; N-terminus assumed; SMILES CC(C)C[C@H](NC(=O)[C@@H]1CCCN1C(=O)[C@H](CC(N)=O)NC(=O)[C@H](CC(N)=O)NC(=O)[C@H](C)NC(=O)[C@@H](NC(=O)[C@H](CC(=O)O)NC(=O)CNC(=O)[C@H](CCCNC(=N)N)NC(=O)[C@H](CCCNC(=N)N)NC(=O)[C@H](CCCNC(=N)N)NC(=O)[C@H](CCC(N)=O)NC(=O)[C@H](CCCNC(=N)N)NC(=O)[C@H](CCCNC(=N)N)NC(=O)[C@H](CCCCN)NC(=O)[C@H](CCCCN)NC(=O)[C@H](CCCNC(=N)N)NC(=O)CNC(=O)[C@@H](N)Cc1ccc(O)cc1)[C@@H](C)O)C(=O)N[C@@H](Cc1ccc(OP(=O)(O)O)cc1)C(=O)N[C@@H](CCCCN)C(=O)N[C@@H](CCC(=O)O)C(=O)N[C@@H](C)C(=O)N[C@H](C(=O)N[C@@H](CO)C(=O)N[C@H](C(=O)N[C@@H](Cc1ccccc1)C(=O)N[C@H](C(=O)O)[C@@H](C)O)[C@@H](C)O)[C@@H](C)O; listed as Homo sapiens) [SEQ ID NO: 2] |  |  |  |  | at least 3.5 fold
